# Results reported in ChEMBL document CHEMBL4330153, “In Vivo Anti-inflammatory and Antiallergic Activity of Pure Naringenin, Naringenin Chalcone, and Quercetin in Mice” (2019).
# Calls of active or inactive are those of the source. The calls are words filed in the database; no cut-off is given here.
# Legend:
# Mus musculus [1] = experiment: Antiallergic activity in CD-1 mouse model of IgE/DNP-BSA-stimulated passive cutaneous anaphylaxis assessed as inhibition of vascular permeability at 5% administered topically immediately after sensitization by Evans blue extravasation assay; type: functional, organism-based
# Mus musculus [2] = experiment: Antiallergic activity in CD-1 mouse model of IgE/DNP-BSA-stimulated passive cutaneous anaphylaxis assessed as inhibition of vascular permeability at 0.1% administered topically immediately after sensitization by Evans blue extravasation assay; type: functional, organism-based
# Mus musculus [3] = experiment: Antiallergic activity in CD-1 mouse model of IgE/DNP-BSA-stimulated passive cutaneous anaphylaxis assessed as inhibition of vascular permeability at 1% administered topically immediately after sensitization by Evans blue extravasation assay relative to control; type: functional, organism-based
# Mus musculus [4] = experiment: (§1) Anti-inflammatory activity in arachidonic acid-induced CD-1 mouse ear edema model assessed as inhibition of ear edema thickness at 1% administered topically immediately after arachidonic acid treatment and measured 1 hr post arachidonic acid treatment relative to control; type: functional
# Mus musculus [5] = experiment: as §1, with “tetradecanoylphorbol-13-acetate-induced” for “arachidonic acid-induced”, “tetradecanoylphorbol-13-acetate” for “arachidonic acid”, “4 hrs” for “1 hr”; type: functional
# Mus musculus [6] = experiment: Antiallergic activity in CD-1 mouse model of IgE/DNP-BSA-stimulated passive cutaneous anaphylaxis assessed as inhibition of vascular permeability at 0.2%, iv administered immediately after sensitization by Evans blue extravasation assay; type: functional, organism-based
# Mus musculus [7] = experiment: Antiallergic activity in CD-1 mouse model of IgE/DNP-BSA-stimulated passive cutaneous anaphylaxis assessed as inhibition of vascular permeability at 2% administered topically immediately after sensitization by Evans blue extravasation assay relative to control; type: functional
# Mus musculus [8] = experiment: Antiallergic activity in CD-1 mouse model of IgE/DNP-BSA-stimulated passive cutaneous anaphylaxis assessed as inhibition of vascular permeability at 4% administered topically as oil-in-water emulsion immediately after sensitization by Evans blue extravasation assay relative to control; type: functional, organism-based
# Mus musculus [9] = experiment: Antiallergic activity in mouse model of picryl-chloride-induced […] allergy at 0.8 mg/kg, po for 5 days relative to control; type: functional
# Mus musculus [10] = experiment: Antiallergic activity in CD-1 mouse model of IgE/DNP-BSA-stimulated passive cutaneous anaphylaxis assessed as inhibition of vascular permeability at 0.02%, iv administered immediately after sensitization by Evans blue extravasation assay relative to control; type: functional
# Mus musculus [11] = experiment: Anti-inflammatory activity in arachidonic acid-induced CD-1 mouse ear edema model assessed as inhibition of ear edema thickness at 2% administered topically immediately after arachidonic acid treatment and measured 1 hr post arachidonic acid treatment relative to control; type: functional
# Mus musculus [12] = experiment: as §1, with “tetradecanoylphorbol-13-acetate-induced” for “arachidonic acid-induced”, “0.5%” for “1%”, “tetradecanoylphorbol-13-acetate” for “arachidonic acid”, “4 hrs” for “1 hr”; type: functional
# Mus musculus [13] = experiment: Anti-inflammatory activity in arachidonic acid-induced CD-1 mouse ear edema model assessed as inhibition of ear edema thickness administered topically immediately after arachidonic acid treatment and measured 1 hr post arachidonic acid treatment; type: functional, organism-based
# Mus musculus [14] = experiment: Antiallergic activity in mouse model of IgE/DNP-BSA-stimulated passive cutaneous anaphylaxis at 5 mg/kg, ip administered as single dose relative to control; type: functional
# Mus musculus [15] = experiment: Anti-inflammatory activity in tetradecanoylphorbol-13-acetate-induced CD-1 mouse ear edema model assessed as inhibition of ear edema thickness administered topically immediately after tetradecanoylphorbol-13-acetate treatment and measured 4 hrs post tetradecanoylphorbol-13-acetate treatment; type: functional, organism-based
# Mus musculus [16] = experiment: Anti-inflammatory activity in tetradecanoylphorbol-13-acetate-induced CD-1 mouse ear edema model assessed as inhibition of ear edema thickness at 2% administered topically immediately after tetradecanoylphorbol-13-acetate treatment and measured 4 hrs post tetradecanoylphorbol-13-acetate treatment relative to control; type: functional
# Mus musculus [17] = experiment: Anti-inflammatory activity in arachidonic acid-induced CD-1 mouse ear edema model assessed as inhibition of ear edema thickness at 1.3% administered topically immediately after arachidonic acid treatment and measured 1 hr post arachidonic acid treatment; type: functional, organism-based
# Mus musculus [18] = experiment: Anti-inflammatory activity in tetradecanoylphorbol-13-acetate-induced CD-1 mouse ear edema model assessed as inhibition of ear edema thickness at 1.3% administered topically immediately after tetradecanoylphorbol-13-acetate treatment and measured 4 hrs post tetradecanoylphorbol-13-acetate treatment; type: functional, organism-based
smiles,measurement,setting,value
CC(c1cc2ccccc2s1)N(O)C(N)=O (centres undefined),inhibition,Mus musculus [1],Active
CCC(=O)O[C@]1(C(=O)COC(C)=O)CC[C@H]2[C@@H]3C[C@H](C)C4=CC(=O)C=C[C@]4(C)[C@H]3[C@@H](O)C[C@@]21C,inhibition,Mus musculus [2],Active
CN(C)CCC(c1ccc(Cl)cc1)c1ccccn1 (centres undefined),inhibition,Mus musculus [3],Active
O=C(O)Cc1ccccc1Nc1c(Cl)cccc1Cl,inhibition,Mus musculus [4],Active
same,inhibition,Mus musculus [5],Active
O=C(O)c1cc(=O)c2c(OCC(O)COc3cccc4oc(C(=O)O)cc(=O)c34)cccc2o1,inhibition,Mus musculus [6],Active
same,inhibition,Mus musculus [7],inactive
same,inhibition,Mus musculus [8],inactive
"O=C(/C=C/c1ccc(O)cc1)c1c(O)cc(O)cc1O [4,2',4',6'-TETRAHYDROXYCHALCONE]",inhibition (INH),Mus musculus [5],27%
same,Activity,Mus musculus [9],47%
same,inhibition (INH),Mus musculus [7],55%
same,inhibition (INH),Mus musculus [10],68%
same,inhibition (INH),Mus musculus [11],42%
O=C1C[C@@H](c2ccc(O)cc2)Oc2cc(O)cc(O)c21 [NARINGENIN],inhibition (INH),Mus musculus [12],32%
same,inhibition,Mus musculus [13],Dose-dependent effect
same,inhibition (INH),Mus musculus [4],22%
same,inhibition (INH),Mus musculus [5],56%
same,Activity,Mus musculus [9],15%
same,inhibition (INH),Mus musculus [7],42%
same,Activity,Mus musculus [14],70%
same,inhibition,Mus musculus [15],Dose-dependent effect
same,inhibition (INH),Mus musculus [16],62%
same,inhibition (INH),Mus musculus [10],56%
same,inhibition (INH),Mus musculus [11],56%
O=c1c(O)c(-c2ccc(O)c(O)c2)oc2cc(O)cc(O)c12 [QUERCETIN],inhibition,Mus musculus [17],inactive
same,inhibition,Mus musculus [18],Active
same,Activity,Mus musculus [9],15%
same,inhibition (INH),Mus musculus [7],34%
same,inhibition (INH),Mus musculus [10],80%
